Results as given in patent US20210393810A1, “DIHYDRAZONE COMPOUNDS HAVING HIGH AFFINITY TO A BETA PROTEIN AND TAU PROTEIN, DERIVATIVES THEREOF AND USE THEREOF” (HTA CO., LTD., priority 2019, published 2021).

How the values were obtained:
Aβ1-42 aggregates = molecular target: T1, Aβ1-42 aggregates (Homo sapiens, UniProt P05067); test: Competitive binding experiment with [125I]IMPY; settings: competition with [125I]IMPY, Aβ1-42, 37° C., 3 hours
T1 construct: preparing Aβ1-42 proteins according to the known methods
T1 sequence (P05067 672-713): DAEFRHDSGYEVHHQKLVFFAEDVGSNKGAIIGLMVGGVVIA
Description: (1) formulating a 0.1% BSA solution with pH=7.4;
(2) preparing a radioligand [125I] IMPY according to the known methods; formulating [125I] IMPY into a solution of 60000-100000 cpm/100 μL for later use;
(3) formulating the compound to be tested into a 10^−5 to 10^−11 mol/L serially diluted ethanol solution;
(4) preparing Aβ1-42 proteins according to the known methods, and diluting it into an aqueous solution of about 30 nM;
(5) soaking a glass fiber filter membrane in PBS solution containing 0.1% polyethyleneimine for 30 minutes;
(6) adding 100 μL of the test compound solutions with different concentrations and 100 μL of [125I] IMPY solution, 700 μL of BSA solution and 100 μL of Aβ1-42 solution into a 12 mm×75 mm borosilicate glass tube, and vortexing;
(7) incubating with shaking in a constant temperature water bath at 37° C. for 3 hours;
(8) collecting the reaction solution by a multi-head cell collector, and rinsing the reaction solution for three times with 10% ethanol solution;
(9) measuring and counting with a gamma counter;
(10) analyzing and processing data using GraphPrad Prism 5.01 to obtain an affinity constant Ki.
Activity between some compounds and Aβ1-42 aggregates was quantitatively determined by the method.

[1] = Biodistribution experiment in normal mice; format: in vivo, mice (ICR, male); settings: for biodistribution, blood / biodistribution, brain: normal ICR mice; for clearance from the brain / passage through the blood-brain barrier / time at which the brain uptake reaches its peak: normal mice; for time at which the brain uptake reaches its peak: after injection
Description: Pharmacokinetic properties in mice, especially the initial brain uptake and brain clearance, were studied through distribution experiments in vivo.
5-10 μCi labelled compounds (100 μL physiological saline solution, containing 10% ethanol) were injected into normal mice (ICR, male, 20-22 g, 5 weeks old) through the tail vein (n=5), and mice were decapitated at 2 minutes, 10 minutes, 30 minutes and 60 minutes after injection, respectively, and organs to be tested were took out by dissection, and the wet weight was measured and radioactive counting was conducted. Data is expressed as the percentage of radioactive dose per gram of organ (% ID/g).

[2] = 2 min after tail vein injection
[3] = 10 min after tail vein injection
[4] = 30 min after tail vein injection
[5] = 60 min after tail vein injection

SMILES | Ki (Aβ1-42 aggregates) [nM] | biodistribution, blood [1, 2] [% ID/g] | biodistribution, blood [1, 3] [% ID/g] | biodistribution, blood [1, 4] [% ID/g] | biodistribution, blood [1, 5] [% ID/g] | biodistribution, brain [1, 2] [% ID/g] | biodistribution, brain [1, 3] [% ID/g] | biodistribution, brain [1, 4] [% ID/g] | biodistribution, brain [1, 5] [% ID/g] | time at which the brain uptake reaches its peak [1] [min] | clearance from the brain [1] | passage through the blood-brain barrier [1]
CN(C)c1ccc(/C=N/N=C/c2ccc(OCCF)cc2)cc1 [Compound 87] | 5.17 ± 1.4 | – | – | – | – | – | – | – | – | – | – | –
CCN(CC)c1ccc(/C=N/N=C/c2ccc(N(CC)CC)cc2)cc1 [Compound 11] | 5.1 ± 1.87 | – | – | – | – | – | – | – | – | – | – | –
CNc1ccc(/C=N/N=C/c2ccc(OCCF)cc2)cc1 [Compound 88] | 10.4 ± 6.71 | – | – | – | – | – | – | – | – | – | – | –
CN(C)c1ncc(/C=N/N=C/c2cnc(N(C)C)nc2)cn1 [Compound 17] | 124 ± 21.7 | – | – | – | – | – | – | – | – | – | – | –
C(=N\N=C\c1ccc(N2CCOCC2)cc1)/c1ccc(N2CCOCC2)cc1 [Compound 15] | 147 ± 2.06 | – | – | – | – | – | – | – | – | – | – | –
CNc1ccc(/C=N/N=C/c2ccc(OCCOCCF)cc2)cc1 [Compound 90] | 8.07 ± 2.89 | – | – | – | – | – | – | – | – | – | – | –
CN(C)c1ccc(/C=N/N=C/c2ccc(OCCOCCF)cc2)cc1 [Compound 89] | 2.45 ± 1.7 | – | – | – | – | – | – | – | – | – | – | –
CNc1ccc(/C=N/N=C/c2ccc(N(C)C)cc2)cc1 [Compound 36] | 35.1 ± 19.3 | – | – | – | – | – | – | – | – | – | – | –
CNc1ccc(/C=N/N=C/c2ccc(O)cc2)cc1 [Compound 63] | 277 ± 50.5 | – | – | – | – | – | – | – | – | – | – | –
C(=N\N=C\c1ccc(N2CCCC2)cc1)/c1ccc(N2CCCC2)cc1 [Compound 13] | 1.2 ± 0.25 | – | – | – | – | – | – | – | – | – | – | –
CNc1ccc(/C=N/N=C/c2ccc(NC)cc2)cc1 [Compound 9] | 45.2 ± 18.4 | – | – | – | – | – | – | – | – | – | – | –
C(=N\N=C\c1ccc(N2CCCCC2)cc1)/c1ccc(N2CCCCC2)cc1 [Compound 14] | 1.39 ± 0.25 | – | – | – | – | – | – | – | – | – | – | –

Now from value to compound, other results behind:

Ki (Aβ1-42 aggregates) [nM] | biodistribution, blood [1, 2] [% ID/g] | biodistribution, blood [1, 3] [% ID/g] | biodistribution, blood [1, 4] [% ID/g] | biodistribution, blood [1, 5] [% ID/g] | biodistribution, brain [1, 2] [% ID/g] | biodistribution, brain [1, 3] [% ID/g] | biodistribution, brain [1, 4] [% ID/g] | biodistribution, brain [1, 5] [% ID/g] | time at which the brain uptake reaches its peak [1] [min] | SMILES | clearance from the brain [1] | passage through the blood-brain barrier [1]
– | 4.30 ± 0.09 | 3.40 ± 0.28 | 3.66 ± 0.18 | 2.59 ± 0.15 | 8.59 ± 0.57 | 4.09 ± 0.38 | 2.40 ± 0.15 | 1.36 ± 0.13 | 2 | CNc1ccc(/C=N/N=C/c2ccc(OCCOCCOCC[18F])nc2)cc1 [[18F]94] | cleared faster in the brain of normal mice | can effectively pass through the blood-brain barrier
42.9 ± 20.5 | – | – | – | – | – | – | – | – | – | CNc1ccc(/C=N/N=C/c2ccc(OCCOCCOCCF)nc2)cc1 [Compound 94] | – | –
– | 3.53 ± 0.24 | 3.16 ± 1.00 | 3.64 ± 0.29 | 2.46 ± 0.33 | 11.39 ± 1.08 | 5.55 ± 0.37 | 2.41 ± 0.22 | 1.44 ± 0.15 | 2 | CN(C)c1ccc(/C=N/N=C/c2ccc(OCCOCCOCC[18F])nc2)cc1 [[18F]93] | cleared faster in the brain of normal mice | can effectively pass through the blood-brain barrier
6.38 ± 0.72 | – | – | – | – | – | – | – | – | – | CN(C)c1ccc(/C=N/N=C/c2ccc(OCCOCCOCCF)cc2)cc1 [Compound 91] | – | –
46.4 ± 15.5 | – | – | – | – | – | – | – | – | – | CNc1ccc(/C=N/N=C/c2ccc(OCCOCCOCCF)cc2)cc1 [Compound 92] | – | –
– | 3.98 ± 0.24 | 3.36 ± 0.19 | 3.00 ± 0.13 | 2.73 ± 0.42 | 10.66 ± 0.89 | 11.00 ± 0.80 | 6.69 ± 0.42 | 4.56 ± 0.58 | 2 | CN(C)c1ccc(/C=N/N=C/c2ccc(OCC[18F])cc2)cc1 [[18F]87] | cleared faster in the brain of normal mice | can effectively pass through the blood-brain barrier
– | 3.72 ± 0.44 | 3.85 ± 0.26 | 4.90 ± 0.61 | 5.44 ± 0.40 | 11.05 ± 1.70 | 7.81 ± 0.60 | 4.92 ± 0.41 | 3.97 ± 0.28 | 2 | CNc1ccc(/C=N/N=C/c2ccc(OCCOCC[18F])cc2)cc1 [[18F]90] | cleared faster in the brain of normal mice | can effectively pass through the blood-brain barrier
– | 2.95 ± 0.31 | 3.24 ± 1.25 | 4.78 ± 0.24 | 5.42 ± 0.65 | 10.88 ± 0.75 | 10.62 ± 0.58 | 6.06 ± 0.38 | 4.55 ± 0.48 | 2 | CN(C)c1ccc(/C=N/N=C/c2ccc(OCCOCC[18F])cc2)cc1 [[18F]89] | cleared faster in the brain of normal mice | can effectively pass through the blood-brain barrier
– | 3.81 ± 0.35 | 3.06 ± 0.49 | 3.26 ± 0.17 | 3.05 ± 0.45 | 7.84 ± 0.50 | 3.94 ± 0.13 | 1.88 ± 0.03 | 1.17 ± 0.07 | 2 | CNc1ccc(/C=N/N=C/c2ccc(OCCOCCOCC[18F])cc2)cc1 [[18F]92] | cleared faster in the brain of normal mice | can effectively pass through the blood-brain barrier
– | 3.08 ± 0.45 | 2.86 ± 0.28 | 3.83 ± 0.27 | 3.66 ± 0.40 | 10.39 ± 1.07 | 7.56 ± 0.91 | 2.93 ± 0.13 | 1.60 ± 0.10 | 2 | CN(C)c1ccc(/C=N/N=C/c2ccc(OCCOCCOCC[18F])cc2)cc1 [[18F]91] | cleared faster in the brain of normal mice | can effectively pass through the blood-brain barrier
– | 3.32 ± 0.26 | 3.57 ± 0.34 | 3.31 ± 0.13 | 2.90 ± 0.32 | 9.21 ± 0.63 | 8.24 ± 0.36 | 4.81 ± 0.27 | 3.02 ± 0.15 | 2 | CNc1ccc(/C=N/N=C/c2ccc(OCC[18F])cc2)cc1 [[18F]88] | cleared faster in the brain of normal mice | can effectively pass through the blood-brain barrier
10.9 ± 0.97 | – | – | – | – | – | – | – | – | – | CN(C)c1ccc(/C=N/N=C/c2ccc(OCCOCCOCCF)nc2)cc1 [Compound 93] | – | –
